Test results as given in patent publication US12486266B2, “Crystalline form of JAK inhibitor and application thereof” (Zhuhai United Laboratories CO., LTD., priority 2020, dated 2025).
Like-named read-outs stand apart in the source and are kept apart here. Marks after values point to notes of the source that are not given here.

Assays:
[1] = system: adjuvant induced arthritis (AIA) rat model
[2] = system: collagen induced arthritis (CIA) in mice; settings: for Incidence rate / Average clinical score: dosing from day 28
[3] = day 15, 30 mg/kg p.o. bid from day 13
[4] = day 17, 30 mg/kg p.o. bid from day 13
[5] = day 20, 30 mg/kg p.o. bid from day 13
[6] = day 22, 30 mg/kg p.o. bid from day 13
[7] = day 24, 30 mg/kg p.o. bid from day 13
[8] = day 13, 0.3 mg/kg p.o. qd from day 13
[9] = day 15, 0.3 mg/kg p.o. qd from day 13
[10] = day 17, 0.3 mg/kg p.o. qd from day 13
[11] = day 20, 0.3 mg/kg p.o. qd from day 13
[12] = day 22, 0.3 mg/kg p.o. qd from day 13
[13] = day 24, 0.3 mg/kg p.o. qd from day 13
[14] = day 27, 0.3 mg/kg p.o. qd from day 13
[15] = day 27, 0.3 mg/kg p.o. qd from day 13, listed as Dexamethasone acetate
[16] = right hind foot, day 27, 0.3 mg/kg p.o. qd
[17] = day 31, 0.3 mg/kg p.o. qd, listed as Dex.

O=C(Nc1nc2cccc(-c3ccc(CN4CCS(=O)(=O)CC4)cc3)n2n1)C1CC1 [Filgotinib]
Clinical score (mean) [1, 3]: 6.6
Foot volume (mean) [1, 3]: 2.2 mL
Clinical score (mean) [1, 4]: 6.3
Foot volume (mean) [1, 4]: 2.0** mL
Clinical score (mean) [1, 5]: 5.8**
Foot volume (mean) [1, 5]: 1.9**** mL
Clinical score (mean) [1, 6]: 5.5***
Foot volume (mean) [1, 6]: 2.0**** mL
Clinical score (mean) [1, 7]: 5.4****
Foot volume (mean) [1, 7]: 2.0**** mL
Foot volume (mean) ([1]; day 27, 30 mg/kg p.o. bid from day 13): 1.9**** mL
Pathological score: Bone resorption ([1]; right hind foot, day 27, 30 mg/kg p.o. bid): 3.6 ± 0.2
Incidence rate ([2]; day 21, 15 mg/kg p.o. bid): 0%
Incidence rate ([2]; day 24, 15 mg/kg p.o. bid): 0%
Incidence rate ([2]; day 27, 15 mg/kg p.o. bid): 25%
Incidence rate ([2]; day 29, 15 mg/kg p.o. bid): 50%
Incidence rate ([2]; day 31, 15 mg/kg p.o. bid): 75%
Incidence rate ([2]; day 34, 15 mg/kg p.o. bid): 88%
Incidence rate ([2]; day 36, 15 mg/kg p.o. bid): 88%
Incidence rate ([2]; day 38, 15 mg/kg p.o. bid): 88%
Incidence rate ([2]; day 41, 15 mg/kg p.o. bid): 100%

C[C@@H]1C[C@H]2[C@@H]3CCC4=CC(=O)C=C[C@]4(C)[C@@]3(F)[C@@H](O)C[C@]2(C)[C@@]1(O)C(=O)CO [Dexamethasone]
Inhibition rate (total pathological score vs solvent control) ([1]; 0.3 mg/kg p.o. qd): 72.5%
Clinical score (mean) [1, 8]: 6.0
Foot volume (mean) [1, 8]: 1.9 mL
Clinical score (mean) [1, 9]: 5.3*
Foot volume (mean) [1, 9]: 1.7**** mL
Clinical score (mean) [1, 10]: 4.1****
Foot volume (mean) [1, 10]: 1.4**** mL
Clinical score (mean) [1, 11]: 3.4****
Foot volume (mean) [1, 11]: 1.3**** mL
Clinical score (mean) [1, 12]: 3.1****
Foot volume (mean) [1, 12]: 1.3**** mL
Clinical score (mean) [1, 13]: 3.1****
Foot volume (mean) [1, 13]: 1.2**** mL
Clinical score (mean) [1, 14]: 2.7
Foot volume (mean) [1, 14]: 1.21 mL
Clinical score (mean) [1, 15]: 2.9****
Foot volume (mean) [1, 15]: 1.2**** mL
Pathological score: Bone resorption [1, 16]: 0.6 ± 0.2
Pathological score: Cartilage injury [1, 16]: 0.6 ± 0.2
Pathological score: Inflammatory cell infiltration [1, 16]: 1.8 ± 0.2
Pathological score: Pannus formation [1, 16]: 1.4 ± 0.3
Pathological score: Total score [1, 16]: 4.4±0.8
Pathological score: Total score ([1]; right hind foot, day 27, 0.3 mg/kg p.o. qd, listed as Dexamethasone acetate): 4.4 ± 0.8
Inhibition rate (clinical score AUC vs control group) ([2]; 0.3 mg/kg p.o. qd 14 days): 97.3%
Inhibition rate (clinical score AUC vs control group) ([2]; 0.3 mg/kg p.o. qd 14 days, listed as Dex.): 97.3%
AUC ± SEM (area under incidence/clinical score curve) ([2]; administration period, 0.3 mg/kg p.o. qd 14 days): 1.38 ± 0.81
Average clinical score ([2]; day 21, 0.3 mg/kg p.o. qd): 0.00 ± 0.00
Incidence rate ([2]; day 21, 0.3 mg/kg p.o. qd): 0%
Average clinical score ([2]; day 24, 0.3 mg/kg p.o. qd): 0.00 ± 0.00
Incidence rate ([2]; day 24, 0.3 mg/kg p.o. qd): 0%
Average clinical score ([2]; day 27, 0.3 mg/kg p.o. qd): about 0.3
Incidence rate ([2]; day 27, 0.3 mg/kg p.o. qd): 25%
Average clinical score ([2]; day 27, 0.3 mg/kg p.o. qd, listed as Dex.): 0.25 ± 0.16
Average clinical score ([2]; day 28, 0.3 mg/kg p.o. qd): 0.50 ± 0.27
Incidence rate ([2]; day 28, 0.3 mg/kg p.o. qd): 38%
Average clinical score ([2]; day 29, 0.3 mg/kg p.o. qd): 0.25 ± 0.16
Incidence rate ([2]; day 29, 0.3 mg/kg p.o. qd): 25%
Average clinical score ([2]; day 31, 0.3 mg/kg p.o. qd): 0
Incidence rate ([2]; day 31, 0.3 mg/kg p.o. qd): 0%
Average clinical score [2, 17]: 0.00 ± 0.00
Incidence rate [2, 17]: 0%
Average clinical score ([2]; day 34, 0.3 mg/kg p.o. qd): 0.00 ± 0.00
Incidence rate ([2]; day 34, 0.3 mg/kg p.o. qd): 0%
Average clinical score ([2]; day 36, 0.3 mg/kg p.o. qd): 0.00 ± 0.00
Incidence rate ([2]; day 36, 0.3 mg/kg p.o. qd): 0%
Average clinical score ([2]; day 38, 0.3 mg/kg p.o. qd): 0.00 ± 0.00
Incidence rate ([2]; day 38, 0.3 mg/kg p.o. qd): 0%
Average clinical score ([2]; day 41, 0.3 mg/kg p.o. qd): 0.00 ± 0.00
Incidence rate ([2]; day 41, 0.3 mg/kg p.o. qd): 0%
